In ChEMBL document CHEMBL3885881, “DrugMatrix”:

Species: Rattus norvegicus
Format: toxicity, organism-based, Sprague-Dawley
Settings: in vivo, po, route oral GAVAGE, vehicle 100 % SALINE; for ABSOLUTE EOSINOPHIL / ABSOLUTE LYMPHOCYTE / ABSOLUTE MONOCYTE / ABSOLUTE SEGMENTED NEUTROPHIL / BASOPHIL / EOSINOPHIL / ERYTHROCYTE COUNT / HEMATOCRIT / HEMOGLOBIN / LEUKOCYTE COUNT / LYMPHOCYTE / MEAN CORPUSCULAR HEMOGLOBIN / MEAN CORPUSCULAR HEMOGLOBIN CONCENTRATION / MONOCYTE / NEUTROPHIL / NUCLEATED RED BLOOD CELLS / PLATELET COUNT: tissue Blood; for ALANINE AMINOTRANSFERASE / ALBUMIN / ALKALINE PHOSPHATASE / ASPARTATE AMINOTRANSFERASE / BLOOD UREA NITROGEN / CARBON DIOXIDE / CHLORIDE / CHOLESTEROL / CREATINE PHOSPHOKINASE / CREATININE / GLUCOSE / LACTATE DEHYDROGENASE / LIPASE / PHOSPHORUS / POTASSIUM / SODIUM / TOTAL BILIRUBIN / TOTAL PROTEIN / URIC ACID: tissue Plasma
[1] = 700 mg/kg, 24 h, dose level Low, time 1 day
[2] = 2100 mg/kg, 6 h, dose level High, time 0.25 day
[3] = 2100 mg/kg, 24 h, dose level High, time 1 day

Description: DrugMatrix - Regimen: Single

## CN(C)C=O [DIMETHYLFORMAMIDE]
[1]
  ABSOLUTE EOSINOPHIL: 0 CELLS/uL
  ABSOLUTE LYMPHOCYTE: 11354.83 CELLS/uL
  ABSOLUTE MONOCYTE: 102.33 CELLS/uL
  ABSOLUTE SEGMENTED NEUTROPHIL: 726.17 CELLS/uL
  BASOPHIL: 0%
  EOSINOPHIL: 0%
  ERYTHROCYTE COUNT: 5.12 x10E6/uL
  HEMATOCRIT: 33.43%
  HEMOGLOBIN: 13.52 G/DL
  LEUKOCYTE COUNT: 12.18 x10E3/uL
  LYMPHOCYTE: 93.17%
  MEAN CORPUSCULAR HEMOGLOBIN: 26.43 pg
  MEAN CORPUSCULAR HEMOGLOBIN CONCENTRATION: 40.52 G/DL
  MONOCYTE: 0.83%
  NEUTROPHIL: 6%
  NUCLEATED RED BLOOD CELLS: 0 /100WBC
  PLATELET COUNT: 1092.67 x10E3/uL
  ALANINE AMINOTRANSFERASE: 23.17 u/L
  ALBUMIN: 4.17 G/DL
  ALKALINE PHOSPHATASE: 336.83 u/L
  ASPARTATE AMINOTRANSFERASE: 50.5 u/L
  BLOOD UREA NITROGEN: 12.5 mg/dL
  CARBON DIOXIDE: 31.17 mmol/L
  CHLORIDE: 96.83 MEQ/L
  CHOLESTEROL: 74.83 mg/dL
  CREATINE PHOSPHOKINASE: 314.83 u/L
  CREATININE: 0.19 mg/dL
  GLUCOSE: 144.5 mg/dL
  LACTATE DEHYDROGENASE: 95 u/L
  LIPASE: 9.67 u/L
  PHOSPHORUS: 10.98 mg/dL
  POTASSIUM: 5.69 MEQ/L
  SODIUM: 142.42 MEQ/L
  TOTAL BILIRUBIN: 0.12 mg/dL
  TOTAL PROTEIN: 6.2 G/DL
  URIC ACID: 0.68 mg/dL
[2]
  ABSOLUTE EOSINOPHIL: 125.17 CELLS/uL
  ABSOLUTE LYMPHOCYTE: 14316 CELLS/uL
  ABSOLUTE MONOCYTE: 63 CELLS/uL
  ABSOLUTE SEGMENTED NEUTROPHIL: 1412.5 CELLS/uL
  BASOPHIL: 0%
  EOSINOPHIL: 0.83%
  ERYTHROCYTE COUNT: 5.21 x10E6/uL
  HEMATOCRIT: 35.07%
  HEMOGLOBIN: 12.68 G/DL
  LEUKOCYTE COUNT: 15.92 x10E3/uL
  LYMPHOCYTE: 89.67%
  MEAN CORPUSCULAR HEMOGLOBIN: 24.33 pg
  MEAN CORPUSCULAR HEMOGLOBIN CONCENTRATION: 36.2 G/DL
  MONOCYTE: 0.33%
  NEUTROPHIL: 9.17%
  NUCLEATED RED BLOOD CELLS: 0 /100WBC
  PLATELET COUNT: 1045.5 x10E3/uL
  ALANINE AMINOTRANSFERASE: 61 u/L
  ALBUMIN: 4.12 G/DL
  ALKALINE PHOSPHATASE: 276.83 u/L
  ASPARTATE AMINOTRANSFERASE: 108.5 u/L
  BLOOD UREA NITROGEN: 6.5 mg/dL
  CARBON DIOXIDE: 20.17 mmol/L
  CHLORIDE: 106 MEQ/L
  CHOLESTEROL: 72.83 mg/dL
  CREATINE PHOSPHOKINASE: 210.67 u/L
  CREATININE: 0.24 mg/dL
  GLUCOSE: 180 mg/dL
  LACTATE DEHYDROGENASE: 149.33 u/L
  LIPASE: 8.17 u/L
  PHOSPHORUS: 13.73 mg/dL
  SODIUM: 144.38 MEQ/L
  TOTAL BILIRUBIN: 0.1 mg/dL
  TOTAL PROTEIN: 5.32 G/DL
  URIC ACID: 2.23 mg/dL
[3]
  ABSOLUTE EOSINOPHIL: 20.83 CELLS/uL
  ABSOLUTE LYMPHOCYTE: 12212.83 CELLS/uL
  ABSOLUTE MONOCYTE: 201.33 CELLS/uL
  ABSOLUTE SEGMENTED NEUTROPHIL: 481.67 CELLS/uL
  BASOPHIL: 0%
  EOSINOPHIL: 0.17%
  ERYTHROCYTE COUNT: 5.11 x10E6/uL
  HEMATOCRIT: 32.92%
  HEMOGLOBIN: 13.1 G/DL
  LEUKOCYTE COUNT: 12.92 x10E3/uL
  LYMPHOCYTE: 94.67%
  MEAN CORPUSCULAR HEMOGLOBIN: 25.65 pg
  MEAN CORPUSCULAR HEMOGLOBIN CONCENTRATION: 39.83 G/DL
  MONOCYTE: 1.5%
  NEUTROPHIL: 3.67%
  NUCLEATED RED BLOOD CELLS: 0.17 /100WBC
  PLATELET COUNT: 1033.5 x10E3/uL
  ALANINE AMINOTRANSFERASE: 24.17 u/L
  ALBUMIN: 4.07 G/DL
  ALKALINE PHOSPHATASE: 292.33 u/L
  ASPARTATE AMINOTRANSFERASE: 43.17 u/L
  BLOOD UREA NITROGEN: 10.5 mg/dL
  CARBON DIOXIDE: 30.5 mmol/L
  CHLORIDE: 99.17 MEQ/L
  CHOLESTEROL: 80.33 mg/dL
  CREATINE PHOSPHOKINASE: 164.67 u/L
  CREATININE: 0.19 mg/dL
  GLUCOSE: 147.33 mg/dL
  LACTATE DEHYDROGENASE: 73.33 u/L
  LIPASE: 10.33 u/L
  PHOSPHORUS: 10.72 mg/dL
  POTASSIUM: 5.2 MEQ/L
  SODIUM: 143.78 MEQ/L
  TOTAL BILIRUBIN: 0.1 mg/dL
  TOTAL PROTEIN: 5.97 G/DL
  URIC ACID: 0.63 mg/dL
